Results taken from paper PMC314469, “Protein Interaction Networks by Proteome Peptide Scanning” (PLoS Biology, 2004).

tested on: Myo5 SH3 domain; assay: SPOT analysis of cellulose-bound peptides (WISE), Myo5 SH3 domain (Dataset S4); assay type: binding, Saccharomyces cerevisiae; conditions: SPOT analysis of cellulose-bound 14-mer yeast proteome peptides, Myo5 SH3 domain; normalized value; mean where the peptide was synthesized more than once

Row | Sequence | The normalized value in BLU units [BLU]
1 | SKRMKALPKGPAAL | 821.6
2 | ILVPHLDPIDPWEA | 166.0
3 | FFQLMQSPSLPLLM | 829.6
4 | GLLLLFVPDSPYDP | 21.6
5 | YWKLFFQPEYPVRM | 144.2
6 | LYREREEPPLPKRI | 112.3
7 | TPYQLLSPILPVLL | 287.1
8 | SLQQFYNPESPIQP | 131.1
9 | FLSRYPVPDLPIYL | 1340.1
10 | NPQSLARPPPPKRI | 247.6
11 | WETWLYKPGMPPRP | 255.2
12 | FEKRYYVPEDPSQD | 120.8
13 | EADGLVQPVVPDKV | 75.1
14 | HFLCLDPPIDPNNL | 122.0
15 | KLVKFKLPFLPISD | 974.1
16 | KELNLTGPKVPEDI | 102.4
17 | MTQPKKNPMEPKTD | 147.2
18 | QLRSLFKPFGPILN | 369.9
19 | KYIIKTEPESPEED | 245.5
20 | TLATLTEPKLPKSY | 18.0
21 | TEEILPTPVQPGGH | 121.0
22 | SASTMAAPVHPQQQ | 164.3
23 | VLEAYNVPTPPRLE | 57.4

Row | Sequence | The normalized value in BLU units [BLU]
24 | GLVLRSTPVIPDMK | 209.2
25 | LWRPRIVPILPYIT | 1051.3
26 | NAPERAVPILPPRN | 740.9
27 | AAMMLGNPMAPAVQ | 256.9
28 | RLNSFAPPPNPYAT | 273.6
29 | TELNLSCPNVPGKP | 227.7
30 | LPAVFSAPIRPDIV | 201.8
31 | VPIIFEIPFNPIYK | 214.9
32 | LLAKLPLPRDPRVA | 343.8
33 | IEVPMEYPFKPPKM | 384.5
34 | KLALHQYPNFPSEG | 130.3
35 | VAPGLWFPNSPPPL | 4831.4
36 | VAKSYGFPVPPKVN | 258.9
37 | KQLKKQGPKRPSSA | 468.1
38 | VPDSYKPPKNPIVF | 829.4
39 | ILFERILPILPVES | 339.9
40 | KPMLHNVPHDPSLP | 412.6
41 | KLKSLNLPQLPPPK | 674.9
42 | SLKNRDGPITPSTI | 215.1
43 | VAWCHDSPKPPSDR | 30.6
44 | PLRERIIPILPANS | 175.1
45 | AADWYEVPKVPLSA | 275.4

same assay, conditions: SPOT analysis of cellulose-bound peptides probed with Myo5 SH3 domain; normalized value

Row | Sequence | The normalized value in BLU units (SPOT analysis, Myo5 SH3) [BLU]
46 | RPSKFFHPPIPHIP | 776.9
47 | GPEFWISPDTPLKF | 87.4
48 | VLKGFYSPSAPSYD | 290.1
49 | FPFYLSFPFCPSFP | 759.9
50 | ILHQLGAPSIPENL | 174.0
51 | PLNQLPNPAMPLLH | 104.2
52 | VPGGMSIPGAPQGA | 139.5
53 | QLIGFGNPKNPFAL | 46.1
54 | DPSLYQIPEPPRGG | 98.8
55 | HFNDLQSPAQPQQS | 92.5
56 | QELPMEVPKEPAPA | 138.8
57 | LLISHLFPTNPEFS | 413.9
58 | PPQTHQSPPPPPQQ | 222.2
59 | FFNRYPNPYSPHVL | 136.7
60 | YEQTMKSPKYPSTY | 138.4
61 | VEVIMHSPSDPEYA | 150.4
62 | AFHELGIPVIPNPS | 193.0
63 | IPLPHQPPPLPIYS | 53588.9

Row | Sequence | The normalized value in BLU units (SPOT analysis, Myo5 SH3) [BLU]
64 | SWLTMLPPMAPLLS | 504.9
65 | PPLDFEQPRLPSTA | 192.3
66 | EAIKLGVPKGPLFA | 130.4
67 | SFTRMPLPTPPIEG | 287.1
68 | ILPVLNIPLPPQEK | 21.6
69 | NEFLHFDPHIPQPA | 156.4
70 | KWKSLFPPFFPCDI | 241.7
71 | ALDYLIPPPMPKNQ | 130.6
72 | IAECLGVPWEPVDL | 142.9
73 | KEFRFIFPLQPLFI | 749.7
74 | LWILYMSPDVPSAS | 252.6
75 | EETEMLAPKLPEEN | 81.6
76 | VLGVLNVPLPPQTR | 233.0
77 | PPPPPPPPPVPA | 95729
78 | NAIEMALPNDPYPA | 87.2
79 | IARPLSVPGSPKVR | 382.9
80 | RPQWLSYPEQPLNS | 241.0

same assay, conditions: SPOT analysis of membrane-bound peptides, Myo5 SH3 domain; normalized value (see methods)

Row | Sequence | The normalized value in BLU units [BLU]
81 | KLVLRNVPILPILN | 303.3
82 | FQYTKGRPLAPKGA | 235.2
83 | FLHSKKIPEVPQTD | 287.9
84 | NGTWKYNPTVPNEL | 172.6
85 | LPEPRFYPLSPKNN | 289.3
86 | TELLRIIPEMPKDL | 228.1
87 | PEWRRPHPNIPDAK | 182.7
88 | RLLFRSLPPHPACL | 745.7
89 | CAKSKSRPNTPGSD | 153.0
90 | YGDNKKNPESPESV | 147.1
91 | DKKKKKYPRKPKKN | 532.3
92 | MRRCKDAPIEPPKY | 155.1
93 | KQLMKNLPKIPLLN | 580.1
94 | VFYHRPAPKPPVTK | 9049.3
95 | MQSKKEDPNRPKNL | 153.6
96 | PVPVRMQPQPPQPM | 187.8
97 | TSWARDNPSKPDIA | 81.6

Row | Sequence | The normalized value in BLU units [BLU]
98 | LNLSKDAPVPPAPE | 161.0
99 | LKDPKSFPPPPLKP | 252.9
100 | KLYYRHRPQKPVRT | 915.7
101 | KVQIKKVPTDPSSS | 191.2
102 | TEFSRPIPPTPSGF | 163.0
103 | KVSSKYDPDNPNKD | 434.5
104 | SKNWKLPPRLPHRA | 5572.0
105 | NAPPRIFPKAPIYG | 168.1
106 | NVLLKAKPNDPAAT | 155.5
107 | ISNRRPVPRRPSQP | 377.4
108 | HELVKSDPHFPYGT | 229.2
109 | LKKQKAIPSSPCGM | 306.9
110 | INIAKAHPNFPIAL | 195.5
111 | LEFPKDYPLSPPKL | 134.8
112 | LDTHKESPLRPKVR | 199.3
113 | EKELKEGPSSPASI | 208.1

same assay, conditions: SPOT analysis of membrane-synthesized peptides probed with Myo5 SH3 domain; normalized value

Row | Sequence | The normalized value in BLU units (SPOT analysis, Myo5 SH3) [BLU]
114 | FEEDKMTPSTPVRS | 248.5
115 | ELDIKQGPVRPFIV | 161.2
116 | REYIKSLPMYPAAP | 70.4
117 | IESFRERPLEPPRK | 98.7
118 | MYGSKFIPFGPKCQ | 289.9
119 | CNYSKIFPGIPISL | 49.2
120 | DQLNRLLPNLPEEE | 47.5
121 | IQQNKQGPKIPFYL | 86.9
122 | PKHIRNEPVKPFRN | 360.9
123 | TSGYKYFPQFPQLK | 234.6
124 | WSQMRMNPTNPDWI | 81.2
125 | NPFVRINPNRPEAA | 275.9
126 | ETGVRYGPEFPLCT | 96.2
127 | LNQSKGQPFQPSPT | 254.7
128 | LQESKTVPQSPKKP | 159.2
129 | RPVYRLKPNAPFQY | 209.8
130 | QTVIKTHPRIPKSE | 186.2
131 | PSAMKLVPSIPPAT | 561.3
132 | ALLRRTIPKRPFYH | 914.3
133 | TDTTKVTPIVPVPI | 48.0
134 | VCTIRSTPSQPIHC | 244.9
135 | MGLNKDVPHCPESL | 99.4
136 | GHKKKNLPKFPKNK | 789.2
137 | TDLFKPLPEPPTEL | 23.4
138 | PPSIRKQPIAPDVL | 150.3
139 | ALLIKTVPGFPLLE | 144.3
140 | EIKDRDQPAVPPSP | 108.1
141 | SMDSKRKPSPPSQR | 509.7
142 | SSKIRPTPRKPSRM | 673.3
143 | GRHLKNIPRIPIFC | 1042.1
